Values of other authors, collected in patent US7820159B2, “MN/CA IX and EGFR pathway inhibition” (Instiute of Virology of the Slovak Academy of Sciences, priority 2006, dated 2010).

Tests used:
MN = target: T1, MN (Homo sapiens, UniProt Q16790); conditions: patients
T1 construct: Phase I and II clinical trials of an MN-specific drug, Rencarex®; host or cells: endogenous MN/CA IX in human trial patients

[1] = patients
MEK = conditions: non-ATP competitive allosteric inhibitors, unlike the majority of ATP-competitive analogs
tumor xenograft models = conditions: in vivo
[2] = not given; remark: listed apart in the source

Row | Molecule | Tolerability in Phase I and II clinical trials (MN) | Drug-related side effects in Phase I and II clinical trials [1] | Selectivity for MEK in biochemical assays (MEK) | Anti-tumor activity in tumor xenograft models (tumor xenograft models) | Solubility compared with CI-1040 | Metabolic stability compared with CI-1040 [2]
1 | Rencarex®: an MN-specific drug tested in Phase I and II clinical trials | well-tolerated | no serious drug-related side effects |  |  |  | 
2 | Cn1cnc2c(F)c(Nc3ccc(Br)cc3Cl)c(C(=O)NOCCO)cc21 [ARRY-142886] |  |  | high selectivity for MEK | potent anti-tumor activity |  | 
3 | O=C(NOC[C@H](O)CO)c1ccc(F)c(F)c1Nc1ccc(I)cc1F [PD-0325901] |  |  |  | potent anti-tumor activity | more soluble | improved
